Source: PubChem BioAssay AID179 (DTP/NCI, 2004)
Where “and” joins values, the source holds several entries; their conditions need not be identical. Identical values can stand only once. Calls of active or inactive are those of the source.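 Rule for the calls: active = compounds giving half or more protection of infected cells from virus-caused growth loss, again on retest; inactive = the rest.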

Tested on: CEM cells HIV-1 protection, formazan growth assay
Experiment: NCI AIDS Antiviral Assay
Conditions: for IC50: measured here: growth of uninfected CEM cells
Procedure, shortened: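 Five concentrations of each compound were applied to infected and uninfected human CEM cells. Protection from HIV-1 was judged from growth measured with a soluble formazan assay.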

Compound	outcome	EC50	IC50
COC1C(C)OC(OC2CC(C)(O)Cc3cc4c(c(O)c32)C(=O)c2c(O)cc3c(c2C4=O)OC2OC3(C)C(O)C(N(C)C)C2O)C(OC)C1(C)OC (stereo unspecified)	inactive	–	–
O=C1/C(=C\c2cccc(Oc3ccccc3)c2)SC(c2ccccc2)N1Cc1ccccc1 (stereo unspecified)	–	> 20 µM	1.29 µM
O=[N+]([O-])c1cccc2c([As](=O)(O)O)cccc12	–	> 200 µM	91.2 µM
Clc1ccc(C2C3COc4ccccc4C3=NN2c2ccccc2)cc1 (stereo unspecified)	–	> 151 µM	1.95 µM
COc1cc2c(cc1OC)C(=O)/C(=C/c1cc(OC)c(OC)c(OC)c1)C2	–	> 200 µM	162 µM
COc1ccc(C2c3c(-c4ccccc4)nn(-c4ccccc4)c3Oc3ncn4nc(CC#N)nc4c32)cc1OC (stereo unspecified)	–	> 200 µM	> 200 µM
CC(C)(C)c1cc(C(C)(C)C)c2[n+]([O-])ssc1-2	–	> 145 µM	20.4 µM
CC(=O)NC(N)=NC#N	–	> 2000 µM	> 2000 µM
O=C(Sc1ccccc1)n1nc(Cl)c2ccc([N+](=O)[O-])cc21	–	> 200 µM	43.7 µM
Oc1cc2cccc[n+]2c2cccc(Cl)c12	–	> 200 µM	34.7 µM
Cc1cc(O)c2c(c1)OC1(C)CCC3C(C)(C)CCCC34COC2C14 (stereo unspecified)	–	> 55 µM	1.58 µM
Cc1nc(SCC(=O)Nc2ccccc2)c2sc(=S)n(-c3ccccc3)c2n1	–	> 501 µM	> 501 µM
CON1C(=O)C(c2cccs2)=C2SCC=C21	–	> 170 µM	4.27 µM
Cc1c(C#N)c2ccccc2c2nc3ccccc3n12	–	> 200 µM	129 µM
CC(C)(C)C(=O)OC(N)/C=C/c1ccccc1 (stereo unspecified)	–	> 200 µM	> 200 µM
COc1ccc(/C=C2\SC(=S)N(/C=C(/C#N)C(=O)c3ccc4ccccc4c3)C2=O)cc1OC	–	> 200 µM	11.7 µM
Cn1c2ccc([N+](=O)[O-])cc2c(=O)n1Cc1ccccc1F	–	> 200 µM	58.9 µM
CS(=O)(=O)c1nc2ccc(N3C(=O)c4ccccc4C3=O)cc2s1	inactive	–	–
CCCCN(CCCC)C(=O)C(=O)C(C#N)c1ccc(C)cc1 (stereo unspecified)	inactive	–	–
c1ccc2[nH]c(SSSSc3nc4ccccc4[nH]3)nc2c1	–	> 200 µM	> 200 µM
NS(=O)(=O)c1ccc(NNc2c3ccccc3nc3c(C(=O)Nc4ccc(S(N)(=O)=O)cc4)cccc23)cc1	–	> 200 µM	10.5 µM
N=C(N)N1CCNc2ccccc2C1	inactive	–	–

Compound	outcome	EC50	IC50
COC1/C=C/OC2(C)Oc3c(C)c(O)c4c(c3C2=O)C(=O)C(CO)=C(NC(=O)/C(C)=C\C=C\C(C)C(O)C(C)C(O)C(C)C(OC(C)=O)C1C)C4=O (stereo unspecified)	–	> 200 µM	91.2 µM
CC1OC(OCC2OC(Oc3ccc4c(=O)c(-c5ccc6c(c5)OCO6)coc4c3)C(O)C(O)C2O)C(O)C(O)C1O (stereo unspecified)	–	129 µM	182 µM
CCCNC(=O)OCCCOC(=O)/C=C(\C(=O)OCCCOC(=O)NCCC)N1[C@H](C)Cc2c(-c3cc(-c4cc(-c5c(O)cc(O)c6c5C[C@@H](C)N[C@@H]6C)c5cc(C)cc(OC)c5c4O)c(O)c4c(OC)cc(C)cc34)c(O)cc(O)c2[C@H]1C	–	> 25.1 µM	> 25.1 µM
COC1CC(CC2CCC(C)C(C(C)C(=O)O)O2)OC2(OC(C)(C3CCC(C)(C4OC(C5OC(O)(CO)C(C)CC5C)CC4C)O3)CC2C)C1C (stereo unspecified)	–	0.0575 µM	0.537 µM
NNc1c(C(N)=O)c2c(N)ncnc2n1C1OC(CO)C(O)C1O (stereo unspecified)	–	> 0.2 µM	0.00912 µM
CCCC1(N2C(=O)c3ccc4c5c(ccc(c35)C2=O)N(C2(CCC)CCCCC2)C4=O)CCCCC1	–	> 100 µM	> 100 µM
[Cu+2].[O-]/N=C/c1ccc(O)c(O)c1[O-].[O-]/N=C/c1ccc(O)c(O)c1[O-]	inactive	–	–
CC(NCCNC(C)C(=O)O)C(=O)O (stereo unspecified)	–	> 676 µM	> 676 µM
O=C1NC(O)c2ccccc2O1 (stereo unspecified)	–	85.1 µM	> 200 µM
CCn1c2ccccc2c2ccc3c(c21)C(=O)c1ccccc1C3=O	–	> 3.24 µM	> 3.24 µM
COc1ccc2c(c1)C(=O)N1CSCC1C(=O)S2 (stereo unspecified)	–	> 200 µM	> 200 µM
CCOP(=O)(OCC)/C(=C/c1ccccc1)CC(C)=O	–	> 200 µM	148 µM
Cc1nc(C)c(C(=O)NNC(=O)Cc2ccccc2)cc1C(=O)NNC(=O)Cc1ccccc1	–	> 200 µM	> 200 µM
CCc1cc2c(=O)[nH]c(-c3cccnc3)nc2s1	–	> 200 µM	> 200 µM
CC(=O)/C(=C/c1ccccc1Br)C(=O)c1ccccc1	–	> 57.5 µM	22.4 µM
CC(=O)N(CCN)CCN	inactive	–	–
O=c1[nH]c2cc([N+](=O)[O-])ccc2nc1/C=C(\O)c1ccc([N+](=O)[O-])cc1	–	> 200 µM	186 µM
CSc1csc(-c2ccc(-c3ccc(-c4cc(SC)cs4)s3)s2)c1	–	> 100 µM	> 100 µM
O=c1[nH]c2ccccc2c(O)c1/C=N/C(=S)NC1CCCCC1	–	> 200 µM	> 200 µM
CC1(c2nc3ccccc3[nH]2)CCC(C(=O)O)C(C)(C)O1 (stereo unspecified)	–	> 200 µM	151 µM
CC1(C)OP(=O)(O)C=C1[Se]c1ccccc1	–	> 324 µM	> 324 µM
O=C1c2ccccc2C(=O)N1Cc1ccccc1-c1c2nc(c(-c3ccccc3CN3C(=O)c4ccccc4C3=O)c3ccc([nH]3)c(-c3ccccc3CN3C(=O)c4ccccc4C3=O)c3nc(c(-c4ccccc4CN4C(=O)c5ccccc5C4=O)c4ccc1[nH]4)C=C3)C=C2	–	> 4.17 µM	> 4.17 µM

Compound	outcome	EC50	IC50
COc1cc2c(cc1OC)[C@@H]([C@H](O)c1ccccc1)NCC2	inactive	–	–
CCOC(=O)NC(=O)c1cn(CCSCCOC(=O)NCCCCCCNC(=O)OCCSCCn2cc(C(=O)NC(=O)OCC)c(=O)n(C)c2=O)c(=O)n(C)c1=O	–	> 8.32 µM	> 8.32 µM
O=C1COC(c2ccccc2O)=NN1Cc1ccccc1	–	> 49 µM	> 49 µM
CC(=O)N1CCCN(C)/C1=N/[N+](=O)[O-]	–	> 200 µM	> 200 µM
CC(C)=CCC[C@@H](C)C1=C(Nc2ccccc2F)C(O)=C(C)C(=O)C1=O	–	> 200 µM	2.14 µM
C[N+](C)(C)CC1CCC/C1=N/O (stereo unspecified)	–	> 832 µM	> 832 µM
COc1cc(NC(C)=O)c(OC)cc1Cl	inactive	–	–
O=C1OCOC1C1OCOC1=O (stereo unspecified)	–	> 200 µM	19.1 µM
Cc1cn(C2OCC(CO)C2N=[N+]=[N-])c(=O)[nH]c1=O (stereo unspecified)	–	> 200 µM	> 200 µM
O=c1c2cc(Br)cc(Br)c2[nH]c(=S)n1-c1ccccc1	–	> 316 µM	126 µM
O=C(O)c1cc(N=Nc2c(O)cc(O)cc2C(=O)O)ccc1/C=C/c1ccc(N=Nc2c(O)cc(O)cc2C(=O)O)cc1C(=O)O	–	87.1 µM	95.5 µM
c1ccc(C2=C(c3ccccc3)/N=N/C(c3ccccc3)=C(c3ccccc3)\N=N\2)cc1	–	> 200 µM	> 200 µM
NCCc1cc2c3c(c1)CCCN3CCC2	–	> 200 µM	11.2 µM
C/C=C/C#CC#CC(O)C(O)/C=C/CCCO (stereo unspecified)	–	> 77.6 µM	> 77.6 µM
O=c1c2n[nH]nc2nc2n1CC(c1ccccc1)S2 (stereo unspecified)	inactive	–	–
O=C1Cc2csc3nc(=O)cc(n23)N1	–	> 120 µM	> 120 µM
O=C1/C(=C/c2ccccc2)NC(=S)N1CN1CCOCC1	–	> 200 µM	72.4 µM
CCCCCCCCCCC(C)CCCCCCC(=O)OCC(COP(=O)([O-])OCC[N+](C)(C)C)OC(=O)CCCCCCC(C)CCCCCCCCCC (stereo unspecified)	inactive	–	–
O=C1CSc2ccccc2-n2cccc21	–	> 209 µM	105 µM
O=NN(O)c1ccccc1.O=NN(O)c1ccccc1.[Cu]	inactive	–	–
Cc1cc(C)c(N)c(CO)c1	–	> 200 µM	> 200 µM and 107 µM
Cc1c(CCl)c(=O)oc2c(C)c3occ(CCl)c(=O)c3cc12	–	> 11.2 µM	4.9 µM

Compound	outcome	EC50	IC50
O=C1N=C(SC2OC(CO)C(O)C(O)C2O)S/C1=C\c1ccccc1 (stereo unspecified)	inactive	–	–
CSc1nc(Cl)c2c(n1)Sc1nc3ccccc3n1C2O (stereo unspecified)	–	> 200 µM	6.31 µM
COc1ccc(NC(=S)N/N=C/c2c(C)n(C)n(-c3ccccc3)c2=O)cc1	–	> 200 µM	115 µM
CC(c1ccccc1)N1CC(C)(c2ccccc2)N(O)C(c2ccccc2)C1C (stereo unspecified)	–	> 18.6 µM	> 18.6 µM
Cc1cc(C)nc(NS(=O)(=O)c2ccc(Nc3c4ccccc4nc4ccc(C(=O)Nc5ccc(S(N)(=O)=O)cc5)cc34)cc2)n1	–	> 200 µM	89.1 µM
COC(=O)C(C)(C)OCc1ccc(C2NC(=O)N(c3cccc(Cl)c3)C(=O)N2c2cccc(Cl)c2)cc1 (stereo unspecified)	–	> 200 µM	24 µM
CCOC(=O)NC(=O)c1cn(CCCOC(=O)NCCCCCCNC(=O)OCCCn2c(=O)c(C(=O)NC(=O)OCC)cn(C)c2=O)c(=O)n(C)c1=O	–	> 33.9 µM	> 33.9 µM
COc1ccc(CCN=C2OCc3ccccc32)cc1OC	–	> 200 µM	11.7 µM
CCCCCCCCCCCCCCCCc1c(C(=O)OC)[nH]c(=S)[nH]c1=O	–	> 3.55 µM	> 3.55 µM
CCOC(=O)/C=C/CCCC(N1CCCC1)n1nnc2ccccc21 (stereo unspecified)	–	> 200 µM	3.31 µM
Cc1ccc2c(c1)nc1n2C(N)=Nc2ccccc2S1	–	> 200 µM	11.5 µM
CC(=O)NC(NCCN)(c1ccccc1)c1ccccc1	–	> 200 µM	> 200 µM
Brc1ccc(-c2cc(-c3ccc4c(c3)OCO4)c(-c3cccs3)n2Cc2ccccc2)cc1	–	> 200 µM	> 200 µM
Cc1cc2c(=O)cc(-c3ccc(O)cc3)oc2c(C(=O)O)c1C	inactive	–	–
COc1ccc(/C=C2\N=C(c3ccccc3)OC2=O)c(OCc2ccccc2)c1	–	> 9.77 µM	> 9.77 µM
CN1OC(CO)CC12C1CC3CC(C1)CC2C3 (stereo unspecified)	–	> 1050 µM	537 µM
COC(=O)C(CCS(=O)(=O)CC(=O)C(=O)Nc1cccc(C(C)=O)c1)C(=O)OC	inactive	–	–
[N-]=[N+]=Nc1cc(=O)n(-c2ccccc2)c(=O)n1-c1ccccc1	–	> 200 µM	> 200 µM
CC(=O)Oc1ccccc1[C@H]1CC(=O)C[C@H](c2ccccc2OC(C)=O)C12C(=O)c1ccccc1C2=O	–	> 200 µM	46.8 µM
